Legend:
[1] = target: 5-hydroxytryptamine receptor 2B (Homo sapiens, UniProt P41595); type: cell membranes, CHO-K1, Membrane; conditions: cho-k1; note: in other assays of this panel Not Active means under 50% inhibition at 10 µM
[2] = DRUGMATRIX: Glutamate, Kainate radioligand binding (ligand: [3H] Kainic acid); type: cell membranes, Rattus norvegicus, Wistar, Brain, Membrane; conditions: Not Active = under 50% inhibition at 10 µM
[3] = target: T1, Alpha-1A adrenergic receptor (Rattus norvegicus, UniProt P43140); assay: DRUGMATRIX: Alpha-1A adrenergic receptor radioligand binding (ligand: prazosin); type: cell membranes, Wistar, Submaxillary gland, Membrane; conditions: Not Active = under 50% inhibition at 10 µM
T1 sequence (P43140 whole entry): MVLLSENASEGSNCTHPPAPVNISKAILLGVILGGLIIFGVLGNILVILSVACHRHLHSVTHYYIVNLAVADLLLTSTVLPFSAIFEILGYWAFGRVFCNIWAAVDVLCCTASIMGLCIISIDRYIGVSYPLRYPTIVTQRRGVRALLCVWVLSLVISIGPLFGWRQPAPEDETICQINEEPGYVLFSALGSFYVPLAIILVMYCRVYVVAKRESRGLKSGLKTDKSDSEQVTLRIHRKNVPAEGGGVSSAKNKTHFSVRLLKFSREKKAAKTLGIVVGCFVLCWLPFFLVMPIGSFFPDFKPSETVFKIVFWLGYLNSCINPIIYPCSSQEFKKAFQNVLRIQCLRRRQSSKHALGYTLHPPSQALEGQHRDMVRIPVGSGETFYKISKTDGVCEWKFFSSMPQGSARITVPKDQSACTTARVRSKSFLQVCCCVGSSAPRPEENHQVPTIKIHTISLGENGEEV

[4] = target: T2, 5-hydroxytryptamine receptor 2C (Homo sapiens, UniProt P28335); assay: DRUGMATRIX: Serotonin (5-Hydroxytryptamine) 5-HT2C radioligand binding (ligand: [3H] Mesulergine); type: cell membranes, CHO-K1, Membrane; conditions: cho-k1; Not Active = under 50% inhibition at 10 µM
T2 sequence (P28335 whole entry): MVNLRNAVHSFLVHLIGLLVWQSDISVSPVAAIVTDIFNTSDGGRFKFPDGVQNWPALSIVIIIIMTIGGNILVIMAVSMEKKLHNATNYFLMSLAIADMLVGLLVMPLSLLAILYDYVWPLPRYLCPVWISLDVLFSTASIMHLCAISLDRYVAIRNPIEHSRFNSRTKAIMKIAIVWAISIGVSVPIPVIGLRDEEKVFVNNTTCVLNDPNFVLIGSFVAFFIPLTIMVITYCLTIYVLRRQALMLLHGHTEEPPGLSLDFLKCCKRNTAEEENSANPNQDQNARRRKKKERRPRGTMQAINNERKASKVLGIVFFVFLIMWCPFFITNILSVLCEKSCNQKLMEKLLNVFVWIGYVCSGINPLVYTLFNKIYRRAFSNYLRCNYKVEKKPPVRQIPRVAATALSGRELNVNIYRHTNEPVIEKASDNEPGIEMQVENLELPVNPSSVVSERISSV

[5] = target: Cytochrome P450 2C9 (Homo sapiens, UniProt P11712); conditions: bti-tn-5b1-4; note: in other assays of this panel Not Active means under 50% inhibition at 10 µM
Sequence of Cytochrome P450 2C9 (P11712 whole entry): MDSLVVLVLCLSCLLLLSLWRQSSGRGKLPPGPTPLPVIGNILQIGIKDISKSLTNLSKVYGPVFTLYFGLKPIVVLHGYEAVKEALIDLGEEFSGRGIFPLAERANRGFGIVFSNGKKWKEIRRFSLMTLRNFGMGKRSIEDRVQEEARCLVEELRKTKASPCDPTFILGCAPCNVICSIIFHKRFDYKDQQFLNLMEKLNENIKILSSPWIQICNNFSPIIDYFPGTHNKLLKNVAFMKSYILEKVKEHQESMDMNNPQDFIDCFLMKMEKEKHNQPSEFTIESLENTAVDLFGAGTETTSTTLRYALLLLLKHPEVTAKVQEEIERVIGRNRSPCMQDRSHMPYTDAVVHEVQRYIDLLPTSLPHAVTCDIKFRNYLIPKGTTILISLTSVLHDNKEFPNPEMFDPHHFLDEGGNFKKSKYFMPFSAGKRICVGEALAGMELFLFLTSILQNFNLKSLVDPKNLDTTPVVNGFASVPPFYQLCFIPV

[6] = DRUGMATRIX: Phosphodiesterase PDE4 enzyme inhibition (substrate: [3H]cAMP + cAMP); conditions: u-937; Not Active = under 50% inhibition at 10 µM

Sequence of 5-hydroxytryptamine receptor 2B (P41595 whole entry): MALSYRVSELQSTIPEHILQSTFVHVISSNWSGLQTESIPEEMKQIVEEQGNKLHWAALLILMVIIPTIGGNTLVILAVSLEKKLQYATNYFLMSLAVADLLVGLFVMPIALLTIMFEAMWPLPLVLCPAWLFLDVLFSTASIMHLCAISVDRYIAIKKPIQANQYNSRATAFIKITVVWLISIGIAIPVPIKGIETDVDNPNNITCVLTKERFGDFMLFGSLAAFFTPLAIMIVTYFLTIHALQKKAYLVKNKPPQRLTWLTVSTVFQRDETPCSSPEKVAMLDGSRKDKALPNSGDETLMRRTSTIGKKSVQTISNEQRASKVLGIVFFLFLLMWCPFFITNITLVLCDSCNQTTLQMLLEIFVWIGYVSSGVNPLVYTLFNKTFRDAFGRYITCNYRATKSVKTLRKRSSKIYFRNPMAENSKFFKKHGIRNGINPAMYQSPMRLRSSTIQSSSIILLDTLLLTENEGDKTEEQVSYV

C[C@]12C=CC(=O)C=C1CC[C@H]1[C@@H]3C[C@@H](O)[C@](O)(C(=O)CO)[C@@]3(C)C[C@H](O)[C@@]12F [TRIAMCINOLONE]
Not Active: IC50 [1] | IC50 [2] | Ki [2] | IC50 [3] | IC50 [4] | IC50 [5] | Ki [5] | IC50 [6] | Ki [6]

CC[C@]1(O)C[C@@H]2CN(CCc3c([nH]c4ccccc34)[C@@](C(=O)OC)(c3cc4c(cc3OC)N(C)[C@H]3[C@@](O)(C(N)=O)[C@H](O)[C@]5(CC)C=CCN6CC[C@]43[C@@H]65)C2)C1 [VINDESINE]
Not Active: IC50 [1] | IC50 [2] | Ki [2] | IC50 [3] | IC50 [4] | IC50 [5] | Ki [5] | IC50 [6] | Ki [6]

CCN(C(C)=O)c1cccc(-c2ccnc3c(C#N)cnn23)c1 [ZALEPLON]
Not Active: IC50 [1] | IC50 [2] | Ki [2] | IC50 [3] | IC50 [4] | IC50 [5] | Ki [5] | IC50 [6] | Ki [6]

COBALTOUS CHLORIDE
Not Active: IC50 [1] | Ki [1] | IC50 [2] | Ki [2] | IC50 [3] | Ki [3] | IC50 [4] | Ki [4] | IC50 [5] | Ki [5] | IC50 [6] | Ki [6]

COLISTIN
Not Active: IC50 [1] | Ki [1] | IC50 [2] | Ki [2] | IC50 [3] | Ki [3] | IC50 [4] | Ki [4] | IC50 [5] | Ki [5] | IC50 [6] | Ki [6]

From ChEMBL document CHEMBL1909046, “DrugMatrix in vitro pharmacology data”
